Data reported in US10450301B2, “Apoptosis signal-regulating kinase 1 inhibitors and methods of use thereof” (ENANTA PHARMACEUTICALS, INC., priority 2017, dated 2019).

biological target: ASK1 (Homo sapiens (Human), UniProt Q99683); assay: HTRF KinEASE Assay (TR-FRET, STK3 peptide substrate), inhibition of ASK1; assay type: biochemical; settings: 5 nM ASK1 kinase, 1 μM STK3 peptide substrate, 100 μM ATP, 3 hours; compound 0 to 10 μM
Procedure, shortened: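 TR-FRET HTRF KinEASE-STK format with an STK3 biotinylated peptide substrate. Signal tracks phosphorylation; IC50 from curve fitting.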

Sequence of ASK1 (Q99683 whole entry): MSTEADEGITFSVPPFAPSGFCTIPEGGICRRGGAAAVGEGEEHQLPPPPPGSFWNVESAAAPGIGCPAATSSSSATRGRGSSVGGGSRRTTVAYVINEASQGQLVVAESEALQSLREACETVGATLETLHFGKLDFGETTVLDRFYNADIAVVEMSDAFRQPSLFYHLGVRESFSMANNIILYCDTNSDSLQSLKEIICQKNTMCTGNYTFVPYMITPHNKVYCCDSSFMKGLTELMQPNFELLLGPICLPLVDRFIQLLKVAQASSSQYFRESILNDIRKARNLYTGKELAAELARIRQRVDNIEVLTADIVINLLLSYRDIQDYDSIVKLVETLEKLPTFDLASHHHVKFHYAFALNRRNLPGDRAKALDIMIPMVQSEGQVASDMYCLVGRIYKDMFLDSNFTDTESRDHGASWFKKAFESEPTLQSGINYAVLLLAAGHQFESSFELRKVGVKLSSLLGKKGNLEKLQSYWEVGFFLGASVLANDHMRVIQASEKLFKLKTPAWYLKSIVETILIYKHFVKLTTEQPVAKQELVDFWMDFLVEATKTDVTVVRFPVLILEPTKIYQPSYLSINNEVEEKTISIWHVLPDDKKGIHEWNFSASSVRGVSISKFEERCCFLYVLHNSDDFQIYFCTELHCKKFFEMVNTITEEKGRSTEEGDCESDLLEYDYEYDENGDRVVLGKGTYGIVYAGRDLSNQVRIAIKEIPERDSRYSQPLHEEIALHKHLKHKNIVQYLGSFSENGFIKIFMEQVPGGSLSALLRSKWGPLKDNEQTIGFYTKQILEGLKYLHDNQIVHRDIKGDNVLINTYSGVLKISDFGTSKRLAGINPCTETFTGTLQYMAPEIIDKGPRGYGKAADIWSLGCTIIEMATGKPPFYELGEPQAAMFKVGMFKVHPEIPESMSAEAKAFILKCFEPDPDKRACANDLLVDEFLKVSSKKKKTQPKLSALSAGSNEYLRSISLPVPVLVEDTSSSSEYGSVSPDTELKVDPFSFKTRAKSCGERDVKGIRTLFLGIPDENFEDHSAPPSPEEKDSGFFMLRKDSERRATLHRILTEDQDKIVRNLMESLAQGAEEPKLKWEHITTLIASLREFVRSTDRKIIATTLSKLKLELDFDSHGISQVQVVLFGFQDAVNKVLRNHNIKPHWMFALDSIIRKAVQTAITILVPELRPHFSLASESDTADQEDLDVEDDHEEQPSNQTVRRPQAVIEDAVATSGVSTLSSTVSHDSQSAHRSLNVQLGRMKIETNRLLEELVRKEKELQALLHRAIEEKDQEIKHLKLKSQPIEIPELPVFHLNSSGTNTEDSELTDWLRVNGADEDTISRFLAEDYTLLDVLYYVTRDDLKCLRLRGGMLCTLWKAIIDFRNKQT

Row | SMILES | IC50 [nM]
1 | CC(C)n1nnnc1-c1cccc(NC(=O)c2cc3c(cn2)CCN(C(=O)OC(C)(C)C)C3)n1 [Example 153, tert-butyl 7-((6-(1-isopropyl-1H-tetrazol-5-yl)pyridin-2-yl)carbamoyl)-3,4-dihydro-2,6-naphthyridine-2(1H)-carboxylate] | 10 to 100
2 | C[C@H](CO)n1nnnc1-c1cccc(NC(=O)c2cc3c(cn2)CCN(S(=O)(=O)N2CCCC2)C3)n1 [Example 154] | 1 to 10
3 | C[C@H](CO)n1nnnc1-c1cccc(NC(=O)c2cc3c(cn2)CCN(C(=O)C2CC2)C3)n1 [Example 155] | 1 to 10
4 | C[C@H](CO)n1nnnc1-c1cccc(NC(=O)c2cc3c(cn2)CCN(C(=O)OC2CCCC2)C3)n1 [Example 156] | 1 to 10
5 | C[C@H](CO)n1nnnc1-c1cccc(NC(=O)c2cc3c(cn2)CCN(C(=O)OC2CCC2)C3)n1 [Example 157] | 1 to 10
6 | COCCOC(=O)N1CCc2cnc(C(=O)Nc3cccc(-c4nnnn4[C@H](C)CO)n3)cc2C1 [Example 158] | 1 to 10
7 | C[C@H](CO)n1nnnc1-c1cccc(NC(=O)c2cc3c(cn2)CCN(C(=O)OCC(C)(C)C)C3)n1 [Example 159] | 1 to 10
8 | CCCOC(=O)N1CCc2cnc(C(=O)Nc3cccc(-c4nnnn4[C@H](C)CO)n3)cc2C1 [Example 160] | 1 to 10
9 | CC(C)CS(=O)(=O)N1CCc2cnc(C(=O)Nc3cccc(-c4nnnn4[C@H](C)CO)n3)cc2C1 [Example 161] | 1 to 10
10 | CC(C)OC(=O)N1CCc2cnc(C(=O)Nc3cccc(-c4nnnn4[C@H](C)CO)n3)cc2C1 [Example 162, isopropyl (R)-7-((6-(1-(1-hydroxypropan-2-yl)-1H-tetrazol-5-yl)pyridin-2-yl)carbamoyl)-3,4-dihydro-2,6-naphthyridine-2(1H)-carboxylate] | 1 to 10
11 | C[C@H](CO)n1nnnc1-c1cccc(NC(=O)c2cc3c(cn2)CCN(CC2CC2)C3)n1 [Example 163, (R)-6-(cyclopropylmethyl)-N-(6-(1-(1-hydroxypropan-2-yl)-1H-tetrazol-5-yl)pyridin-2-yl)-5,6,7,8-tetrahydro-2,6-naphthyridine-3-carboxamide] | 1 to 10
12 | CC(C)CN1CCc2cnc(C(=O)Nc3cccc(-c4nnnn4[C@H](C)CO)n3)cc2C1 [Example 164] | 1 to 10
13 | CCCN1CCc2cnc(C(=O)Nc3cccc(-c4nnnn4[C@H](C)CO)n3)cc2C1 [Example 165] | 1 to 10
14 | C[C@H](CO)n1nnnc1-c1cccc(NC(=O)c2cc3c(cn2)CCN(S(=O)(=O)N(C)C)C3)n1 [Example 166] | 1 to 10
15 | CCN(C)C(=O)N1CCc2cnc(C(=O)Nc3cccc(-c4nnnn4[C@H](C)CO)n3)cc2C1 [Example 167] | 1 to 10
16 | C[C@H](CO)n1nnnc1-c1cccc(NC(=O)c2cc3c(cn2)CCN(C(=O)N(C)C)C3)n1 [Example 168] | 1 to 10
17 | C[C@H](CO)n1nnnc1-c1cccc(NC(=O)c2cc3c(cn2)CCN(C(=O)NC2CCCC2)C3)n1 [Example 169] | 1 to 10
18 | CCNC(=O)N1CCc2cnc(C(=O)Nc3cccc(-c4nnnn4[C@H](C)CO)n3)cc2C1 [Example 170] | 1 to 10
19 | C[C@H](CO)n1nnnc1-c1cccc(NC(=O)c2cc3c(cn2)CCN(Cc2ccccn2)C3)n1 [Example 171] | 1 to 10

Row | SMILES | IC50 [nM]
20 | CC(C)n1nnnc1-c1cccc(NC(=O)c2cc3c(cn2)CCN(S(=O)(=O)CCC(F)(F)F)C3)n1 [Example 172] | 1 to 10
21 | CC(C)n1nnnc1-c1cccc(NC(=O)c2cc3c(cn2)CCN(C(=O)N2CCCC2)C3)n1 [Example 173] | 1 to 10
22 | COc1cc2c(cc1C(=O)Nc1cccc(-c3nnnn3C(C)C)n1)C(=O)N(C(C)C)C2 [Example 174] | 100 to 1000
23 | COc1cc2c(cc1C(=O)Nc1cccc(-c3nncn3C(C)C)n1)C(=O)N(C(C)C)C2 [Example 175, 2-isopropyl-N-(6-(4-isopropyl-4H-1,2,4-triazol-3-yl)pyridin-2-yl)-6-methoxy-3-oxoisoindoline-5-carboxamide] | 10 to 100
24 | CC(C)N1Cc2cc(F)c(C(=O)Nc3cccc(-c4nnnn4C(C)C)n3)cc2C1=O [Example 176] | > 1000
25 | CC(C)N1Cc2cc(F)c(C(=O)Nc3cccc(-c4nncn4C(C)C)n3)cc2C1=O [Example 177, 6-fluoro-2-isopropyl-N-(6-(4-isopropyl-4H-1,2,4-triazol-3-yl)pyridin-2-yl)-3-oxoisoindoline-5-carboxamide] | > 1000
26 | C[C@H](CO)n1nnnc1-c1cccc(NC(=O)c2cc3c(cn2)CN(C(=O)OCc2ccccc2)C3)n1 [Example 178] | 1 to 10
27 | CC(C)n1cnnc1-c1cccc(NC(=O)c2cc3c(cn2)CN(C(=O)OCc2ccccc2)C3)n1 [Example 179, benzyl 6-((6-(4-isopropyl-4H-1,2,4-triazol-3-yl)pyridin-2-yl)carbamoyl)-1,3-dihydro-2H-pyrrolo[3,4-c]pyridine-2-carboxylate] | 10 to 100
28 | CC(C)n1nnnc1-c1cccc(NC(=O)c2cc3c(cn2)CN(C(=O)OCc2ccccc2)C3)n1 [Example 180] | > 1000
29 | C[C@H](CO)n1nnnc1-c1cccc(NC(=O)c2cc3c(cn2)CCN(C)C3)n1 [Example 181] | 1 to 10
30 | C[C@H](CO)n1nnnc1-c1cccc(NC(=O)c2cc3c(cn2)CCN(C(=O)N2[C@@H]4CCC[C@H]2CC4)C3)n1 [Example 182, 6-((1R,5 S)-8-azabicyclo[3.2.1]octane-8-carbonyl)-N-(6-(1-((R)-1-hydroxypropan-2-yl)-1H-tetrazol-5-yl)pyridin-2-yl)-5,6,7,8-tetrahydro-2,6-naphthyridine-3-carboxamide] | 1 to 10
31 | C[C@H](CO)n1nnnc1-c1cccc(NC(=O)c2cc3c(cn2)CCN(C(=O)NCCC(F)(F)F)C3)n1 [Example 183] | 1 to 10
32 | CC(C)n1cnnc1-c1cccc(NC(=O)c2ccc3c(c2)CN(C(=O)OC(C)(C)C)CC3)n1 [Example 183a] | > 1000
33 | C[C@H](CO)n1nnnc1-c1cccc(NC(=O)c2cc3c(cn2)CCN(C(=O)N(C)C2CCCC2)C3)n1 [Example 184, (R)—N2-cyclopentyl-N7-(6-(1-(1-hydroxypropan-2-yl)-1H-tetrazol-5-yl)pyridin-2-yl)-N2-methyl-3,4-dihydro-2,6-naphthyridine-2,7(1H)-dicarboxamide] | > 1000
34 | C[C@H](CO)n1nnnc1-c1cccc(NC(=O)c2cc3c(cn2)CCN(C(=O)N2CCC2)C3)n1 [Example 185, (R)-6-(azetidine-1-carbonyl)-N-(6-(1-(1-hydroxypropan-2-yl)-1H-tetrazol-5-yl)pyridin-2-yl)-5,6,7,8-tetrahydro-2,6-naphthyridine-3-carboxamide] | 1 to 10
35 | C[C@H](CO)n1nnnc1-c1cccc(NC(=O)c2cc3c(cn2)CCN(C(=O)NC2COC2)C3)n1 [Example 186] | 10 to 100
36 | CCn1cc(CNC(=O)N2CCc3cnc(C(=O)Nc4cccc(-c5nnnn5[C@H](C)CO)n4)cc3C2)cn1 [Example 187] | < 1
37 | CCn1cc(COC(=O)N2CCc3cnc(C(=O)Nc4cccc(-c5nnnn5[C@H](C)CO)n4)cc3C2)cn1 [Example 188, (1-ethyl-1H-pyrazol-4-yl)methyl (R)-7-((6-(1-(1-hydroxypropan-2-yl)-1H-tetrazol-5-yl)pyridin-2-yl)carbamoyl)-3,4-dihydro-2,6-naphthyridine-2(1H)-carboxylate] | 1 to 10
38 | C[C@H](CO)n1nnnc1-c1cccc(NC(=O)c2cc3c(cn2)CCN(C(=O)OC2CC4CCC(C2)N4C)C3)n1 (stereo partly drawn) [Example 190, 8-methyl-8-azabicyclo[3.2.1]octan-3-yl 7-((6-(1-((R)-1-hydroxypropan-2-yl)-1H-tetrazol-5-yl)pyridin-2-yl)carbamoyl)-3,4-dihydro-2,6-naphthyridine-2(1H)-carboxylate] | 1 to 10
